Measurements published in US11013673B2, “Cosmetic compositions containing quinones and their topical use on skin and hair” (Repairogen Corp, priority 2016, dated 2021).

Columns and labels:
[1] = test system: primary human keratinocytes; test: cytotoxicity assay (Cell Titer96 Aqueous One) on keratinocytes; type: cell-based; settings: 24 h
Protocol: (§1) Normal primary adult human keratinocytes derived from a donor were purchased from PromoCell (Heidelberg, Germany) and cultured in keratinocytes growth medium (Epilife+EDGS, Thermo Fisher Scientific, NY, USA). Keratinocytes cultures were maintained at 37° C. with 5% CO2 and ˜95% humidity.
(§2) Cytotoxicity was evaluated using the Cell Titer96 Aqueous One (Promega, Wis., USA) basic test according to manufacturer's instructions. Cells were seeded at a density of 10,000 cells/well in a 96-well plate and cultured overnight. Treatments with seven doses of compounds were carried out for 24 hours, in triplicates. Colorimetric analysis was performed using an absorbance of 490 nm. Inhibition of viability of more than 20% of the control values was considered cytotoxic.
The cytotoxicity assay on primary human keratinocytes from adult donor was performed after 24 h of culture in the presence of different concentrations of each compound, as indicated in FIG. 2A and Table 1.

[2] = test system: primary human fibroblasts; test: cytotoxicity assay (Cell Titer96 Aqueous One) on fibroblasts; settings: 24 h
Protocol: Normal human dermal adult fibroblasts derived from a donor of were purchased from CELLnTec (Bern, Switzerland) and grown in DMEM supplemented with 10% FBS (Life Technologies, CA, USA). Fibroblasts cultures were maintained at 37° C. with 5% CO2 and ˜95% humidity.
as §2
The cytotoxicity assay on primary human fibroblasts from adult donor was performed after 24 h of culture in the presence of different concentrations of each compound, as indicated in FIG. 2B and Table 2.

[3] = test system: human epidermal keratinocytes; test: microarray analysis of differential gene expression in keratinocytes; settings: for number of genes downregulated / number of genes upregulated: 24 h
Protocol: as §1
Normal primary human keratinocytes were seeded in 6-well plates and incubated for 24 h. Cells were then washed in PBS (Thermo Fisher Scientific) and reincubated for 24 more hours in the presence of RGN1518 and RGN1538 (each at two different concentrations), vehicle control, or positive control. Following treatment, the cells were washed with PBS, collected and stored frozen at −80° C. before RNA extraction.
RNA was extracted using a Qiagen RNeasy kit (Qiagen, CA, USA) according to manufacturer's protocol.
18 vials containing RNA isolated from human epidermal keratinocytes and 18 vials containing RNA isolated from human fibroblasts were shipped to Thermo Fisher Scientific, Advanced BioMedical Laboratories (Cinnaminson, N.J.) on dry ice for Affymetrix Human Clariom D array processing.
The differential gene expression was obtained using a threshold of 0.05 for statistical significance (p-value) and a log fold change of expression with absolute value of at least 1. Gene expression was further analysed using Differential Expression Analysis and Pathway Analysis iPathwayGuide) by Advaita Bioinformatics Services (Plymouth, Mich.) in the context of pathways obtained from the Kyoto Encyclopedia of Genes and Genomes (KEGG) database (Release 84.0+/10-26, October 17) (Kanehisa et al., 2000; Kanehisa et al., 2002), gene ontologies from the Gene Ontology Consortium database (2017 Nov. 6) (Ashburner et al., 2000; Gene Ontology Consortium, 2001), miRNAs from the miRBase (Release 21) and […] (Targetscan version:Mouse:7.1, Human:7.1) databases (Agarwal et al., 2015; Nam et al., 2014; Griffiths-Jones et al., 2008; Kozomara and Griffiths-Jones, 2014; Friedman et al., 2009; Grimson et al., 2007), and diseases from the KEGG database (Release 84.0+/10-26, October 17) (Kanehisa et al., 2000; Kanehisa et al., 2002). All references are available in the reports for bioinformatics analysis of differential gene expression provided by Advaita Bioinformatics Services at the following link.

human fibroblasts = test: microarray analysis of differential gene expression in fibroblasts; type: cell-based
[4] = stability of active ingredient in cosmetic composition; settings: 40° C., 50° C., −5° C.; two-, four-, six-, eight-, and 12-week time points
Protocol: Two cosmetic compositions were prepared, one containing lapachol (denoted RGN 1538) and the other containing myrtucommulone C (denoted RGN 1518) as active ingredients, and the stabilities of the active ingredients in these compositions were evaluated.

[5] = concentration of 50 (unit not given), 24 h
[6] = wound healing gene, fibroblasts, 24 h

myrtucommulone C
Avg (% of untreated) ([1]; 6.2 μM): 80% | Avg (% of untreated) ([1]; 12.4 μM): 44% | Avg (% of untreated) ([1]; 24.8 μM): 43% | Avg (% of untreated) ([1]; 50 μM): 47% | Avg (% of untreated) ([1]; 100 μM): 43% | Avg (% of untreated) ([1]; 200 μM): 54% | Avg (% of untreated) ([1]; 400 μM): 51% | concentrations that showed no cytotoxicity ([1]; unit not given): up to 6.2 | Avg (% of untreated) ([2]; 6.2 μM): 97% | Avg (% of untreated) ([2]; 12.4 μM): 94% | Avg (% of untreated) ([2]; 24.8 μM): 90% | Avg (% of untreated) ([2]; 50 μM): 88% | Avg (% of untreated) ([2]; 100 μM): 74% | Avg (% of untreated) ([2]; 200 μM): 72% | Avg (% of untreated) ([2]; 400 μM): 54% | concentrations that showed no cytotoxicity ([2]; unit not given): up to 50 | expression of DNAJB9 [3]: upregulated | expression of cell cycle genes PKMYT1, MYC [3]: upregulated | number of genes downregulated ([3]; 1.6 μM): 1196 genes | number of genes upregulated ([3]; 1.6 μM): 492 genes | number of genes downregulated ([3]; 3.1 μM, of 24905 genes): 1294 genes | number of genes upregulated ([3]; 3.1 μM, of 24905 genes): 693 genes | expression of cell cycle genes ([3]; CDK1, PLK1, RB1, CDC25C, CDC25B, MAD2L1, CDKN2B, CCNA2, MAD1L1, TTK, ZBTB17, RBL1, CCNB1, CCNB2, BUB1, CDC20, PTTG1, BUB1B): downregulated | expression of genes maintaining structure and activity of the Golgi apparatus ([3]; COG6, ARFGAP3, IFT20, MGAT4): upregulated | expression of genes important for normal differentiation and function of skin ([3]; FGF2, VEGFA, SERPINB1, CDH4, GDF15): upregulated | expression of genes involved in Metabolic Pathways ([3]; GK, FA2H, ASS1, ACSS2, HK2, PHGDH, CYP1A1, CSGALNACT2): upregulated | expression of genes associated with inflammation ([3]; IL1A, IL6, IL1R2, IL1RL1, IL2RG, TSC22D3): upregulated | expression of genes involved in Metabolic Pathways ([3]; MTHFD1, CYP2J2, RRM2, TYMS): downregulated | vascular wound healing, spreading of epidermal cells and vasculature development (gene profile) (human fibroblasts): activation | number of genes downregulated (human fibroblasts; 25 μM, 24 h, of 24905 genes): 430 genes | number of genes upregulated (human fibroblasts; 25 μM, 24 h, of 24905 genes): 986 genes | number of genes downregulated (human fibroblasts; 62 μM, 24 h): 76 genes | number of genes upregulated (human fibroblasts; 62 μM, 24 h): 53 genes | gene expression of common skin targets (human fibroblasts; CRELD1, NGF, GLRX2, CSGALNACT2, VEGFA, ITGA2, PPARG, EPGN): upregulated | number of genes involved in wound healing downregulated (human fibroblasts; at both doses): 24 genes | number of genes involved in wound healing upregulated (human fibroblasts; at both doses): 28 genes | hair cycle, hair follicle morphogenesis and development (biological processes) (human fibroblasts; both concentrations): affected | number of genes downregulated (human fibroblasts; [5]): 468 genes | number of genes upregulated (human fibroblasts; [5]): 821 genes | Log Fc ACTB (human fibroblasts; [6]): −1.055 | Log Fc ADAM17 (human fibroblasts; [6]): 1.323 | Log Fc AJUBA (human fibroblasts; [6]): −1.145 | Log Fc CARMIL1 (human fibroblasts; [6]): −1.177 | Log Fc DGKE (human fibroblasts; [6]): 1.432 | Log Fc EDN1 (human fibroblasts; [6]): −1.404 | Log Fc EREG (human fibroblasts; [6]): 2.169 | Log Fc F2RL2 (human fibroblasts; [6]): 1.038 | Log Fc F3 (human fibroblasts; [6]): −1.039 | Log Fc FGF10 (human fibroblasts; [6]): −1.313 | Log Fc FGFR1OP2 (human fibroblasts; [6]): 1.213 | Log Fc GATA6 (human fibroblasts; [6]): −1.081 | Log Fc GSN (human fibroblasts; [6]): −1.041 | Log Fc HBEGF (human fibroblasts; [6]): 1.225 | Log Fc HIST1H3G (human fibroblasts; [6]): −2.339 | Log Fc HIST2H3A (human fibroblasts; [6]): −1.285 | Log Fc HMOX1 (human fibroblasts; [6]): 1.346 | Log Fc IFRD1 (human fibroblasts; [6]): 1.072 | Log Fc IL6 (human fibroblasts; [6]): 2.578 | Log Fc IL24 (human fibroblasts; [6]): 1.179 | Log Fc IRF1 (human fibroblasts; [6]): 1.27 | Log Fc ITGA2 (human fibroblasts; [6]): 2.425 | Log Fc ITGB3 (human fibroblasts; [6]): 2.051 | Log Fc ITPR1 (human fibroblasts; [6]): 1.812 | Log Fc LBH (human fibroblasts; [6]): −1.524 | Log Fc MAFK (human fibroblasts; [6]): 1.267 | Log Fc MERTK (human fibroblasts; [6]): 1.107 | Log Fc MIR199A1 (human fibroblasts; [6]): 2.142 | Log Fc MIR221 (human fibroblasts; [6]): 1.648 | Log Fc MYLK (human fibroblasts; [6]): −1.62 | Log Fc NDNF (human fibroblasts; [6]): 1.132 | Log Fc NOV (human fibroblasts; [6]): −1.524 | Log Fc PDGFD (human fibroblasts; [6]): −1.782 | Log Fc PDPN (human fibroblasts; [6]): 1.265 | Log Fc PLAUR (human fibroblasts; [6]): 1.077 | Log Fc PLET1 (human fibroblasts; [6]): 1.412 | Log Fc PLPP3 (human fibroblasts; [6]): −1.23 | Log Fc RAB27A (human fibroblasts; [6]): 1.228 | Log Fc SMAD3 (human fibroblasts; [6]): −1.102 | Log Fc SYT7 (human fibroblasts; [6]): 1.079 | Log Fc TFPI2 (human fibroblasts; [6]): 2.549 | Log Fc TGFBR2 (human fibroblasts; [6]): −1.067 | Log Fc THBD (human fibroblasts; [6]): 4.119 | Log Fc THBS1 (human fibroblasts; [6]): −1.287 | Log Fc TLN1 (human fibroblasts; [6]): −1.13 | Log Fc TMEFF2 (human fibroblasts; [6]): −1.526 | Log Fc TNFAIP3 (human fibroblasts; [6]): 2.328 | Log Fc TPM1 (human fibroblasts; [6]): −1.209 | Log Fc TRPC6 (human fibroblasts; [6]): −2.444 | Log Fc UBASH3B (human fibroblasts; [6]): 1.546 | Log Fc WNT5A (human fibroblasts; [6]): −1.732 | acceptable degradation of active compound (20% or 80% of original) [4]: met this criteria
